Where two headings read alike, the source gives them in different places.
What was measured:
[1] = system: adjuvant-induced arthritis; experiment: Established Adjuvant-Induced Arthritis in Rats; format: in vivo, Charles River Lewis male rats; details: rat; for Adjuvant Arthritic, paw volume reduction at the indicated dose: oral; for ED50: oral gavage, dosed on day of grouping and 6 following days, ED50% decrease from control paw volume (uninjected left hind paw), read-out: Adjuvant Arthritic ED50
[2] = system: phenylquinone-induced writhing (pain); experiment: Phenylquinone Writhing Test; format: in vivo, female white mice; details: read-out: Phenylquinone Writhing ED50
Protocol: A test compound suspended in 1% methylcellulose was given orally to fasted (17-21 hours) female white mice, 5-20 animals per double blind test. Aqueous (0.01% phenyl-p-benzoquinone) phenylquinone, 0.20 ml per mouse, was injected intraperitoneally 6 minutes before observations were begun.

[3] = mouse, oral, fasted, effective analgesic dose for 50% of the mice

Row | Compound | ED50 [2, 3] | ED50 [1] | further results
1 | FC(F)(F)Sc1nc2c([nH]1)C(c1ccccc1)Oc1ccccc1-2 (stereo not shown) [Example 4, 3,4-Dihydro(or 1,4-dihydro)-2-[(trifluoromethyl)thio]4phenyl-[1]benzopyrano[3,4-d]imidazole] | 0.58 mg/kg | – | Adjuvant Arthritic, paw volume reduction at the indicated dose ([1]; at 9 (mg/kg)): 31%
2 | CCSc1nc2c([nH]1)C(c1ccccc1)Oc1ccccc1-2 (stereo not shown) [Example 8] | – | – | Adjuvant Arthritic, paw volume reduction at the indicated dose ([1]; at 20 (mg/kg)): 18%
3 | CC(C)Cc1ccc(C(C)C(=O)O)cc1 (stereo not shown) [Ibuprofen, ibuprofen, reference compound] | 10 mg/kg | – | –
4 | COc1ccc(C2Oc3ccccc3-c3nc(SC(F)(F)C(F)F)[nH]c32)cc1 (stereo not shown) [Example 7] | < 4 mg/kg | – | –
5 | CS(=O)(=O)c1nc2c([nH]1)C(c1ccccc1)Oc1ccccc1-2 (stereo not shown) [Example 6, 3,4-Dihydro(or 1,4-dihydro)-2-(methylsulfonyl)-4-phenyl-[1]benzopyrano[3,4-d]imidazole] | 78 mg/kg | – | Adjuvant Arthritic, paw volume reduction at the indicated dose ([1]; at 27 (mg/kg)): 34%
6 | O=S(=O)(c1nc2c([nH]1)C(c1ccccc1)Oc1ccccc1-2)C(F)(F)F (stereo not shown) [Example 5, 3,4-Dihydro(or 1,4-dihydro)-2-[(trifluoromethyl)sulfonyl]-4-phenyl-[1]benzopyrano[3,4-d]imidazole] | 0.16 mg/kg | 0.8 mg/kg | –
7 | FC(F)C(F)(F)Sc1nc2c([nH]1)C(c1ccccc1)Oc1ccccc1-2 (stereo not shown) [Example 1, 3,4-Dihydro(or 1,4-dihydro)-2-[(1,1,2,2-tetrafluoroethyl)thio]-4-phenyl-[1]benzopyrano[3,4-d]imidazole] | 1.3 mg/kg | 3.4 mg/kg | –
8 | Fc1ccc(C2Oc3ccccc3-c3nc(SC(F)(F)C(F)F)[nH]c32)cc1 (stereo not shown) [Example 3, 3,4-Dihydro(or 1,4-dihydro)-2-[(1,1,2,2-tetrafluoroethyl)thio]-4-(4-fluorophenyl)-[1]benzopyrano[3,4-d]-imidazole] | 0.79 mg/kg | 4 mg/kg | –
9 | CCCCC1C(=O)N(c2ccccc2)N(c2ccccc2)C1=O [Phenylbutazone, phenylbutazone, reference compound] | 80 mg/kg | – | –
10 | COc1ccc2c(c1)c(CC(=O)O)c(C)n2C(=O)c1ccc(Cl)cc1 [Indomethacin, indomethacin, reference compound] | – | – | ED50 ([2]; Mus musculus, po): 0.35 mg/kg
11 | O=S(=O)(c1nc2c([nH]1)C(c1ccccc1)Oc1ccccc1-2)C(F)(F)C(F)F (stereo not shown) [Example 2, 3,4-Dihydro(or 1,4-dihydro)-2-[(1,1,2,2-tetrafluoroethyl)sulfonyl]-4-phenyl-[1]benzopyrano[3,4-d]imidazole] | 0.19 mg/kg | 1.3 mg/kg | –
12 | FC(F)(F)CSc1nc2c([nH]1)C(c1ccccc1)Oc1ccccc1-2 (stereo not shown) [Example 9] | – | – | Adjuvant Arthritic, paw volume reduction at the indicated dose ([1]; at 20 (mg/kg)): 30%
13 | CC(=O)Oc1ccccc1C(=O)O [Aspirin, aspirin, reference compound] | – | – | ED50 ([2]; Mus musculus, po): 135 mg/kg

Reference: patent US4371541A, “Antiinflammatory and/or analgesic 3,4-dihydro-(or 1,4-dihydro)-4-aryl-2-((substituted)thio)-(1)-benzopyrano(3,4-d)imidazol es and their corresponding sulfoxides and sulfones” (E. I. Du Pont de Nemours and Company, priority 1982, dated 1983)
